Source: PubChem BioAssay AID248 (DTP/NCI, 2004)
Values joined by “and” are separate entries in the source; they are usually repeats but may differ in a detail not shown here. Identical values can stand only once. Toxic doses and inconclusive results are not listed.

Test system: L1210 leukemia ip in BDF1 mice, survival T/C
Assay: NCI In Vivo Anticancer Drug Screen. Data for tumor model L1210 Leukemia (intraperitoneal) in B6D2F1 (BDF1) mice
Details: endpoint: mean survival time, higher = longer survival
How it was run: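 Ratio derived from survival: compound-dosed mice over vehicle-dosed mice, all bearing a transplantable tumor.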

Compound: O=NN(CCCl)C(=O)N[C@H]1CCCC[C@@H]1Cl
- T/C (dose: 3.0 mg/kg/injection, schedule: Q## X024 (ip), vehicle: other): 103 % of control
- T/C (dose: 3.0 mg/kg/injection, schedule: Q## X024 (oral), vehicle: other): 114 % of control
- T/C (dose: 3.35 mg/kg/injection, schedule: Q01DX015 (ip), vehicle: other): 116 % of control
- T/C (dose: 5.0 mg/kg/injection, schedule: Q01DX015 (ip), vehicle: other): 173 % of control
- T/C (dose: 6.0 mg/kg/injection, schedule: Q01DX001 (oral), vehicle: other): 116 % of control
- T/C (dose: 6.0 mg/kg/injection, schedule: Q01DX001 (sc), vehicle: other): 123 % of control
- T/C (dose: 6.0 mg/kg/injection, schedule: Q## X008 (oral), vehicle: other): 122 % of control
- T/C (dose: 6.7 mg/kg/injection, schedule: Q02DX008 (ip), vehicle: other): 162 % of control and 208 % of control
- T/C (dose: 7.6 mg/kg/injection, schedule: Q01DX015 (ip), vehicle: other): 277 % of control
- T/C (dose: 7.62 mg/kg/injection, schedule: Q01DX015 (ip), vehicle: other): 485 % of control
- T/C (dose: 8.0 mg/kg/injection, schedule: Q01DX001 (ip), vehicle: carboxymethylcellulose (CMC)): 119 % of control
- T/C (dose: 10.2 mg/kg/injection, schedule: Q02DX008 (ip), vehicle: other): 242 % of control and 558 % of control
- T/C (dose: 11.4 mg/kg/injection, schedule: Q01DX015 (ip), vehicle: other): 348 % of control and 478 % of control
- T/C (dose: 12.0 mg/kg/injection, schedule: Q01DX001 (ip), vehicle: other): 203 % of control
- T/C (dose: 12.0 mg/kg/injection, schedule: Q## X008 (oral), vehicle: other): 117 % of control
- T/C (dose: 13.4 mg/kg/injection, schedule: Q## X004 (ip), vehicle: other): 291 % of control and 500 % of control
- T/C (dose: 13.75 mg/kg/injection, schedule: Q01DX001 (oral), vehicle: other): 150 % of control and 164 % of control
- T/C (dose: 13.75 mg/kg/injection, schedule: Q## X001 (oral), vehicle: other): 200 % of control
- T/C (dose: 15.0 mg/kg/injection, schedule: Q01DX001 (ip), vehicle: other): 187 % of control
- T/C (dose: 15.0 mg/kg/injection, schedule: Q01DX005 (ip), vehicle: other): 476 % of control
- T/C (dose: 15.0 mg/kg/injection, schedule: Q01DX009 (ip), vehicle: other): 408 % of control
- T/C (dose: 15.0 mg/kg/injection, schedule: Q01DX009 (sc), vehicle: other): 365 % of control
- T/C (dose: 15.0 mg/kg/injection, schedule: Q## X003 (ip), vehicle: other): 476 % of control
- T/C (dose: 15.24 mg/kg/injection, schedule: Q02DX008 (ip), vehicle: other): 501 % of control
- T/C (dose: 15.25 mg/kg/injection, schedule: Q01DX001 (ip), vehicle: other): 323 % of control
- T/C (dose: 15.25 mg/kg/injection, schedule: Q## X001 (ip), vehicle: other): 156 % of control
- T/C (dose: 16.0 mg/kg/injection, schedule: Q## X032 (ip), vehicle: other): 209 % of control
- T/C (dose: 17.0 mg/kg/injection, schedule: Q01DX015 (ip), vehicle: other): 330 % of control and 527 % of control
- T/C (dose: 18.0 mg/kg/injection, schedule: Q01DX001 (ip), vehicle: carboxymethylcellulose (CMC)): 183 % of control
- T/C (dose: 19.0 mg/kg/injection, schedule: Q01DX001 (ip), vehicle: carboxymethylcellulose (CMC)): 160 % of control
- T/C (dose: 20.4 mg/kg/injection, schedule: Q## X004 (ip), vehicle: other): 590 % of control
- T/C (dose: 22.8 mg/kg/injection, schedule: Q02DX008 (ip), vehicle: other): 433 % of control and 545 % of control
- T/C (dose: 24.0 mg/kg/injection, schedule: Q01DX001 (ip), vehicle: other): 476 % of control
- T/C (dose: 24.0 mg/kg/injection, schedule: Q01DX001 (oral), vehicle: other): 275 % of control
- T/C (dose: 24.0 mg/kg/injection, schedule: Q01DX001 (sc), vehicle: other): 267 % of control
- T/C (dose: 24.0 mg/kg/injection, schedule: Q## X008 (oral), vehicle: other): 165 % of control
- T/C (dose: 24.0 mg/kg/injection, schedule: Q## X024 (oral), vehicle: other): 270 % of control
- T/C (dose: 24.0 mg/kg/injection, schedule: Q## X032 (ip), vehicle: other): 470 % of control
- T/C (dose: 26.0 mg/kg/injection, schedule: Q01DX001 (ip), vehicle: carboxymethylcellulose (CMC)): 209 % of control and 243 % of control
- T/C (dose: 27.0 mg/kg/injection, schedule: Q01DX001 (ip), vehicle: other): 409 % of control
- T/C (dose: 27.5 mg/kg/injection, schedule: Q01DX001 (oral), vehicle: other): 263 % of control and 297 % of control
- T/C (dose: 27.5 mg/kg/injection, schedule: Q## X001 (oral), vehicle: other): 438 % of control
- T/C (dose: 28.0 mg/kg/injection, schedule: Q## X001 (oral), vehicle: other): 340 % of control
- T/C (dose: 30.0 mg/kg/injection, schedule: Q01DX005 (ip), vehicle: other): 203 % of control
- T/C (dose: 30.0 mg/kg/injection, schedule: Q01DX005 (oral), vehicle: other): 255 % of control
- T/C (dose: 30.0 mg/kg/injection, schedule: Q01DX009 (ip), vehicle: other): 121 % of control
- T/C (dose: 30.0 mg/kg/injection, schedule: Q01DX009 (sc), vehicle: other): 200 % of control
- T/C (dose: 30.0 mg/kg/injection, schedule: Q## X003 (ip), vehicle: other): 357 % of control
- T/C (dose: 30.0 mg/kg/injection, schedule: Q## X003 (oral), vehicle: other): 452 % of control
- T/C (dose: 30.5 mg/kg/injection, schedule: Q01DX001 (ip), vehicle: carboxymethylcellulose (CMC)): 303 % of control
- T/C (dose: 30.5 mg/kg/injection, schedule: Q01DX001 (ip), vehicle: other): 186 % of control and 230 % of control
- T/C (dose: 30.5 mg/kg/injection, schedule: Q## X001 (ip), vehicle: other): 205 % of control
- T/C (dose: 30.5 mg/kg/injection, schedule: Q## X004 (ip), vehicle: other): 525 % of control
- T/C (dose: 34.0 mg/kg/injection, schedule: Q02DX008 (ip), vehicle: other): 285 % of control and 398 % of control
- T/C (dose: 36.0 mg/kg/injection, schedule: Q01DX001 (ip), vehicle: carboxymethylcellulose (CMC)): 259 % of control
- T/C (dose: 40.0 mg/kg/injection, schedule: Q01DX001 (ip), vehicle: carboxymethylcellulose (CMC)): 235 % of control and 238 % of control
- T/C (dose: 41.0 mg/kg/injection, schedule: Q01DX001 (ip), vehicle: other): 590 % of control
- T/C (dose: 41.0 mg/kg/injection, schedule: Q## X001 (oral), vehicle: other): 403 % of control
- T/C (dose: 45.6 mg/kg/injection, schedule: Q## X004 (ip), vehicle: other): 289 % of control and 481 % of control
- T/C (dose: 46.0 mg/kg/injection, schedule: Q01DX001 (ip), vehicle: carboxymethylcellulose (CMC)): 329 % of control
- T/C (dose: 48.0 mg/kg/injection, schedule: Q01DX001 (ip), vehicle: other): 384 % of control
- T/C (dose: 48.0 mg/kg/injection, schedule: Q01DX001 (oral), vehicle: other): 476 % of control
- T/C (dose: 48.0 mg/kg/injection, schedule: Q01DX001 (sc), vehicle: other): 382 % of control
- T/C (dose: 48.0 mg/kg/injection, schedule: Q## X008 (oral), vehicle: other): 471 % of control
- T/C (dose: 48.0 mg/kg/injection, schedule: Q## X024 (oral), vehicle: other): 448 % of control
- T/C (dose: 54.4 mg/kg/injection, schedule: Q## X032 (ip), vehicle: other): 377 % of control
- T/C (dose: 55.0 mg/kg/injection, schedule: Q01DX001 (oral), vehicle: other): 174 % of control and 245 % of control
- T/C (dose: 55.0 mg/kg/injection, schedule: Q## X001 (oral), vehicle: other): 204 % of control
- T/C (dose: 60.0 mg/kg/injection, schedule: Q01DX001 (ip), vehicle: carboxymethylcellulose (CMC)): 296 % of control and 304 % of control and 329 % of control
- T/C (dose: 60.0 mg/kg/injection, schedule: Q01DX009 (sc), vehicle: other): 95 % of control
- T/C (dose: 60.0 mg/kg/injection, schedule: Q## X003 (ip), vehicle: other): 105 % of control
- T/C (dose: 61.0 mg/kg/injection, schedule: Q01DX001 (ip), vehicle: carboxymethylcellulose (CMC)): 329 % of control
- T/C (dose: 61.0 mg/kg/injection, schedule: Q## X001 (ip), vehicle: other): 320 % of control and 527 % of control
- T/C (dose: 68.0 mg/kg/injection, schedule: Q## X004 (ip), vehicle: other): 180 % of control and 221 % of control
- T/C (dose: 91.5 mg/kg/injection, schedule: Q01DX001 (ip), vehicle: carboxymethylcellulose (CMC)): 164 % of control
- T/C (dose: 91.5 mg/kg/injection, schedule: Q01DX001 (ip), vehicle: other): 237 % of control and 491 % of control
- T/C (dose: 93.0 mg/kg/injection, schedule: Q01DX001 (ip), vehicle: carboxymethylcellulose (CMC)): 108 % of control
- T/C (dose: 96.0 mg/kg/injection, schedule: Q01DX001 (ip), vehicle: other): 96 % of control
- T/C (dose: 96.0 mg/kg/injection, schedule: Q01DX001 (sc), vehicle: other): 420 % of control
- T/C (dose: 96.0 mg/kg/injection, schedule: Q## X008 (oral), vehicle: other): 225 % of control
- T/C (dose: 120.0 mg/kg/injection, schedule: Q## X003 (oral), vehicle: other): 102 % of control

Compound: COSc1ccc([N+](=O)[O-])cc1[N+](=O)[O-]
- T/C (dose: 100.0 mg/kg/injection, schedule: Q04DX003 (ip), vehicle: saline with Tween-80): 96 % of control
- T/C (dose: 200.0 mg/kg/injection, schedule: Q04DX003 (ip), vehicle: saline with Tween-80): 100 % of control
- T/C (dose: 400.0 mg/kg/injection, schedule: Q04DX003 (ip), vehicle: saline with Tween-80): 103 % of control
